Calls of active or inactive are those of the source. No cut-off for these calls is given here.
How the values were obtained:
LS174T [1] = assay: Induction of cell cycle arrest in human LS174T cells assessed as downregulation of CDK4 expression measured after 24 hrs by Western blot analysis; type: functional, cell-based; details: dose 5-20 µM, DDE = dose-dependent effect
LS174T [2] = assay: Induction of cell cycle arrest in human LS174T cells assessed as accumulation of cells at G0/G1 phase at 5 uM measured after 24 hrs by RNase A/propidium iodide staining based flow cytometric analysis (reference value: 71.7 %); type: functional
LS174T [3] = assay: Induction of cell cycle arrest in human LS174T cells assessed as accumulation of cells at S phase at 20 uM measured at 36 hrs by RNase A/propidium iodide staining based flow cytometric analysis (reference value: 11.4 %); type: functional
LS174T [4] = assay: Induction of cell cycle arrest in human LS174T cells assessed as accumulation of cells at G2/M phase at 20 uM measured at 24 hrs by RNase A/propidium iodide staining based flow cytometric analysis (reference value: 12.9 %); type: functional
LS174T [5] = assay: Induction of cell cycle arrest in human LS174T cells assessed as accumulation of cells at G2/M phase at 20 uM measured at 48 hrs by RNase A/propidium iodide staining based flow cytometric analysis (reference value: 12.9 %); type: functional
Mus musculus [6] = assay: Downregulation of Ki-67 expression in tumor of BALB/c mouse xenografted with human LS174T cells at 10 to 30 mg/kg, ip administered 3 times per week for 21 days by immunohistochemical based analysis; type: functional, organism-based; details: dose 10-30 mg/kg, time 21.0 day
RKO = assay: Antiproliferative activity against human RKO cells harboring wild type beta-catenin assessed as reduction in cell viability measured after 72 hrs by SRB assay; type: functional, cell-based
LS174T [7] = assay: Induction of cell cycle arrest in human LS174T cells assessed as accumulation of cells at S phase at 20 uM measured at 12 hrs by RNase A/propidium iodide staining based flow cytometric analysis (reference value: 11.4 %); type: functional
LS174T [8] = assay: Induction of cell cycle arrest in human LS174T cells assessed as accumulation of cells at G0/G1 phase at 20 uM measured at 48 hrs by RNase A/propidium iodide staining based flow cytometric analysis (reference value: 74.8 %); type: functional
LS174T [9] = assay: Induction of cell cycle arrest in human LS174T cells assessed as accumulation of cells at G2/M phase at 10 uM measured after 24 hrs by RNase A/propidium iodide staining based flow cytometric analysis (reference value: 12.2 %); type: functional
LS174T [10] = assay: Induction of apoptosis in human LS174T cells assessed as upregulation of cleaved caspase-9 expression measured after 48 hrs by Western blot analysis; type: functional, cell-based; details: dose 20-40 µM, DDE = dose-dependent effect
CCD-18Co = assay: Antiproliferative activity against human CCD-18Co cells assessed as reduction in cell viability measured after 72 hrs by SRB assay; type: functional, cell-based
LS174T [11] = assay: Induction of cell cycle arrest in human LS174T cells assessed as accumulation of cells at S phase at 20 uM measured at 48 hrs by RNase A/propidium iodide staining based flow cytometric analysis (reference value: 11.4 %); type: functional
LS174T [12] = assay: Induction of apoptosis in human LS174T cells assessed as downregulation of survivin expression measured after 48 hrs by Western blot analysis; type: functional, cell-based; details: dose 20-40 µM, DDE = dose-dependent effect
LS174T [13] = assay: Induction of cell cycle arrest in human LS174T cells assessed as downregulation of CDK6 expression measured after 24 hrs by Western blot analysis; type: functional, cell-based; details: dose 5-20 µM, DDE = dose-dependent effect
LS174T [14] = assay: Antitumor activity against human LS174T cells xenografted in BALB/c nude mouse assessed as reduction in tumor volume at 10 mg/kg, ip administered 3 times per week for 21 days by electronic caliper method; type: functional; design: scale not given: the % may be the effect or the level left; details: time 21 day
LS174T [15] = assay: Antitumor activity against human LS174T cells xenografted in BALB/c nude mouse assessed as reduction in tumor weight at 30 mg/kg, ip administered 3 times per week for 21 days by electronic caliper method; type: functional; design: scale not given: the % may be the effect or the level left; details: time 21 day
SW480 = assay: Antiproliferative activity against human SW480 cells harboring wild type beta-catenin assessed as reduction in cell viability measured after 72 hrs by SRB assay; type: functional, cell-based; details: SW480, 72 h
Mus musculus [16] = assay: Downregulation of cyclin-D1 expression in tumor of BALB/c mouse xenografted with human LS174T cells at 10 to 30 mg/kg, ip administered 3 times per week for 21 days by Western blot analysis; type: functional, organism-based; details: dose 10-30 mg/kg, time 21.0 day
LS174T [17] = assay: Downregulation of cyclin D1 expression in human LS174T cells at 2.5 to 20 uM incubated for 24 hrs by Western blot analysis; type: functional, cell-based; details: dose 2.5-20 µM
Mus musculus [18] = assay: Downregulation of cyclin D1 expression in tumor of BALB/c mouse xenografted with human LS174T cells at 10 to 30 mg/kg, ip administered 3 times per week for 21 days by immunohistochemical based analysis; type: functional, organism-based; details: dose 10-30 mg/kg, time 21.0 day
LS174T [19] = assay: Induction of apoptosis in human LS174T cells assessed as upregulation of cleaved PARP expression measured after 48 hrs by Western blot analysis; type: functional, cell-based; details: dose 20-40 µM, DDE = dose-dependent effect
LS174T [20] = assay: Induction of cell cycle arrest in human LS174T cells assessed as accumulation of cells at sub-G1 phase at 5 uM measured after 24 hrs by RNase A/propidium iodide staining based flow cytometric analysis (reference value: 1.3 %); type: functional
LS174T [21] = assay: Induction of cell cycle arrest in human LS174T cells assessed as accumulation of cells at G0/G1 phase at 20 uM measured after 24 hrs by RNase A/propidium iodide staining based flow cytometric analysis (reference value: 71.7 %); type: functional
LS174T [22] = assay: Antiproliferative activity against human LS174T cells harboring beta-catenin mutant assessed as reduction in cell viability measured after 72 hrs by SRB assay; type: functional, cell-based
Mus musculus [23] = assay: Downregulation of c-myc protein expression in tumor of BALB/c mouse xenografted with human LS174T cells at 10 to 30 mg/kg, ip administered 3 times per week for 21 days by Western blot analysis; type: functional, organism-based; details: dose 10-30 mg/kg, time 21.0 day
[24] = Toxicity in BALB/c nude mouse xenografted with human LS174T cells assessed as effect on body weight at 30 mg/kg, IP administered 3 times per week for 21 days; type: organism-based; details: in vivo, 504 h, time 21 day
LS174T [25] = assay: Induction of cell cycle arrest in human LS174T cells assessed as downregulation of CDK2 expression measured after 24 hrs by Western blot analysis; type: functional, cell-based; details: dose 5-20 µM, DDE = dose-dependent effect
LS174T [26] = assay: Downregulation of c-Myc expression in human LS174T cells at 2.5 to 20 uM incubated for 24 hrs by Western blot analysis; type: functional, cell-based; details: dose 2.5-20 µM
LS174T [27] = assay: Induction of cell cycle arrest in human LS174T cells assessed as accumulation of cells at sub-G1 phase at 20 uM measured at 24 hrs by RNase A/propidium iodide staining based flow cytometric analysis (reference value: 0.7 %); type: functional
Mus musculus [28] = assay: Downregulation of N-cadherin expression in tumor of BALB/c mouse xenografted with human LS174T cells at 10 to 30 mg/kg, ip administered 3 times per week for 21 days by Western blot analysis; type: functional, organism-based; details: dose 10-30 mg/kg, time 21.0 day
LS174T [29] = assay: Inhibition of cell migration in human LS174T cells assessed as reduction in wound closure incubated for 24 hrs by wound healing assay; type: functional, cell-based; details: dose 2-8 µM, DDE = dose-dependent effect
LS174T [30] = assay: Induction of cell cycle arrest in human LS174T cells assessed as accumulation of cells at S phase at 5 uM measured after 24 hrs by RNase A/propidium iodide staining based flow cytometric analysis (reference value: 14.5 %); type: functional

O=c1c2ccccc2nc2n1CCc1c-2[nH]c2ccccc12 [RUTAECARPINE]
Activity (LS174T [1]): Dde | Activity (LS174T [2]): 75.8% | Activity (LS174T [3]): 2.1% | Activity (LS174T [4]): 5.6% | Activity (LS174T [5]): 4.4% | Activity (Mus musculus [6]): Active | IC50 (RKO): > 50 µM | Activity (LS174T [7]): 2.4% | Activity (LS174T [8]): 76.9% | Activity (LS174T [9]): 9.6% | Activity (LS174T [10]): Dde | IC50 (CCD-18Co): > 50 µM | Activity (LS174T [11]): 4.7% | Activity (LS174T [12]): Dde | Activity (LS174T [13]): Dde | Activity (LS174T [14]): 25.9% | Activity (LS174T [15]): 41.5% | IC50 (SW480): > 50 µM | Activity (Mus musculus [16]): Active | Activity (LS174T [17]): Active | Activity (Mus musculus [18]): Active | Activity (LS174T [19]): Dde | Activity (LS174T [20]): 1.4% | Activity (LS174T [21]): 87.3% | IC50 (LS174T [22]): 6.1 µM | Activity (Mus musculus [23]): Active | Activity [24]: Non-Toxic | Activity (LS174T [25]): Dde | Activity (LS174T [26]): Active | Activity (LS174T [27]): 2.7% | Activity (Mus musculus [28]): Active | inhibition (LS174T [29]): Dde | Activity (LS174T [30]): 10.7%

— ChEMBL document CHEMBL5137022, “Antitumor Activity of Rutaecarpine in Human Colorectal Cancer Cells by Suppression of Wnt/β-Catenin Signaling” (J Nat Prod, 2022)
